Assay [1] has as its target TRPA1 (Homo sapiens, UniProt O75762). Kind of assay: TRPA1 calcium imaging (Fura-2AM) in transfected KNRK cells. It counts as cell-based. Set-up: expressed in transfected cells; host or cells: KNRK cells, transient transfection with Lipofectamine 2000. As to conditions: KNRK cells transiently transfected with TRPA1. Here is the method:
(§1) DAPA-1-9 was tested on TRPV1 channels and TRPA1 channels expressed in KNRK cells (Kirsten murine sarcoma virus transformed kidney epithelial cells). KNRK cells were cultured as a monolayer and maintained in DMEM (Life Technologies), supplemented with 10% FBS (Life Technologies), 100 units/ml penicillin and 100 μg/ml streptomycin, in an incubator of 5% CO2 at 37° C. After suspension, the cells were coated on cover slips for 12 hours, then transiently transfected with cDNA (pc3.1 DNA) for TRPV1 or TRPA1 with Lipofectamine 2000 (Invitrogen) for 24 hr, and loaded with Fura-2AM™ (Molecular Probes) for 40 min at 37° C. After washing and recovery, KNRK cells were imaged at 340 and 380 nm excitation to detect free calcium influx. An increase of 50% of the 340/380 ratio was considered as the response threshold which were measured under blinded conditions for plasmids. Compounds were applied to the bath and calcium response was acquired by an inverted Nikon fluorescence microscope with a CoolSnap HQ2 CCD camera (Photometrics, Tucson, Ariz.). Data were quantified offline with the Nikon-NIS program.

For assay [2], the target named is T1, TRPM8 (Homo sapiens, UniProt Q7Z2W7). Kind of assay: TRPM8 receptor agonist assay (Fluo-8 calcium, FLIPR). It counts as cell-based. Also on record: host or cells: CHO cells, stably transfected. On the procedure:
Compounds were tested on (CHO) cells stably transfected with human TRPM8 cDNAs using a Fluo-8 calcium kit and a Fluorescence Imaging Plate Reader ([…]™) instrument. […] Solutions were prepared by diluting stock solutions in a HEPES-buffered physiological saline (HBPS) solution. Test compound and control formulations were loaded in polypropylene or glass-lined 384-well plates, and placed into the FLIPR instrument (Molecular Devices Corporation, Union City, Calif., USA). Each was tested at 8 concentrations with n=4 replicates per determination. […] For […]™ assay, cells were plated in 384-well black wall, flat clear-bottom microtiter plates (Type: BD Biocoat Poly-D-Lysine Multiwell Cell Culture Plate) at approximately 30,000 cells per well. Cells were incubated at 37° C. overnight to reach a near confluent monolayer appropriate for use in a fluorescence assay. The test procedure was to remove the growth media and to add 40 μL of HBPS containing Fluo-8 for 30 minutes at 37° C. 10 μL of test compound, vehicle, or control solutions in HBPS were added to each well and read for 4 minutes. Concentration-response data were analysed via the FLIPR Control software that is supplied with the FLIPR System (MDS-AT) and fitted to a Hill equation.
Target sequence in this assay (Q7Z2W7 whole entry): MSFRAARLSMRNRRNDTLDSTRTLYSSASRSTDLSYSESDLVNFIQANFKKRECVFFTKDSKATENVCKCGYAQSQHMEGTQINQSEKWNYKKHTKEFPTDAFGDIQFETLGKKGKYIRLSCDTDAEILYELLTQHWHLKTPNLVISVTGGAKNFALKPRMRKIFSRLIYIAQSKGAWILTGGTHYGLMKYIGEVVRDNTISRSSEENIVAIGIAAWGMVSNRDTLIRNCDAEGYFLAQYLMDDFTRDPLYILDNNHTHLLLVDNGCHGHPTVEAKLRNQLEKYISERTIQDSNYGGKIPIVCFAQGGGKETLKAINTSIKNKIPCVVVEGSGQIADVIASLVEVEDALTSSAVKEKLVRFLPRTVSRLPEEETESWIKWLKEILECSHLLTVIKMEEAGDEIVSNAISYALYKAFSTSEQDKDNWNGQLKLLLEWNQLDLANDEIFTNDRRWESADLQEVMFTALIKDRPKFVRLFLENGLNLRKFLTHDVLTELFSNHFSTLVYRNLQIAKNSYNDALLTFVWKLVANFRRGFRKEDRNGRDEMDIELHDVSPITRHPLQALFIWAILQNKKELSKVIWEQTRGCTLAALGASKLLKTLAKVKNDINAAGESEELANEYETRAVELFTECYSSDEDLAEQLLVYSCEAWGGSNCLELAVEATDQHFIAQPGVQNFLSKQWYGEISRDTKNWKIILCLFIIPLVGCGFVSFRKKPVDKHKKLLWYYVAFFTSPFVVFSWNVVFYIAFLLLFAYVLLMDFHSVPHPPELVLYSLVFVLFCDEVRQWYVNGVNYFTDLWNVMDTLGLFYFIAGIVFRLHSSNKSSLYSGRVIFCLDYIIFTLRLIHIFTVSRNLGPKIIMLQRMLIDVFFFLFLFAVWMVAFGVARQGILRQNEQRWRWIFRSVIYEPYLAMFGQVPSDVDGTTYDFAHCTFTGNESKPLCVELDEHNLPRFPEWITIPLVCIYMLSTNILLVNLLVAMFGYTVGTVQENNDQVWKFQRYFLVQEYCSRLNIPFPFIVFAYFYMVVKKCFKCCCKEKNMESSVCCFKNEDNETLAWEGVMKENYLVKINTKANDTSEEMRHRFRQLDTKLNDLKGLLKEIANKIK

The test system of assay [3] is pentobarbital-anesthetized male rats. Kind of assay: Shaking frequency (wet-dog shaking) of anesthetized rats after intravenous, perioral or topical delivery. It counts as in vivo. As to conditions: anesthetized rat. Here is the method:
In experiments conducted here, test compounds were evaluated for “wet-dog shaking” as a model of cooling sensation. Using a standardized procedure, test compounds were compared in their ability to stimulate the shaking response by intravenous injection into a cannulated femoral vein, by perioral administration, and by topical delivery to the abdominal skin.
Each rat was given two injections with a 30 min interval. […] Shaking frequency was counted for 15 min after injection. Shaking was observed immediately after i.v. injection and at least 78% of the total shakes occurred in the first 5 min after injection. The response in the second trial was at least as robust in the first trial, showing the lack of desensitization.
Test compounds were dissolved in saline and administered by oral gavage to pentobarbital-anesthetized male albino rats at 20 mg/kg at a volume of 0.1 mL/100 g body weight [N=3 to 4 rats per compound]. Shaking was counted over a 40 min period and recorded at 10-min intervals.
For topical application of DAPA, the abdominal skin of the anesthetized rat was shaved and 20 μL of the pure DAPA was applied with a micropipette onto a ˜1 cm diameter circle of skin, enclosed with a ring of cream [Baby cream “Nevskaya kosmetika Detskyi” Nevskaya Kosmetika Inc., Saint-Petersburg 192029], as shown in FIG. 5D. The number of shakes was counted for 1 hr after application.

Assay [4] has as its target TRPV1 (Homo sapiens, UniProt Q8NER1). Kind of assay: TRPV1 calcium imaging (Fura-2AM) in transfected KNRK cells. Also on record: expressed in transfected cells; host or cells: KNRK cells, transient transfection with Lipofectamine 2000. As to conditions: KNRK cells transiently transfected with TRPV1. It is filed as cell-based. On the procedure: as §1
The target of assay [5] is T1, TRPM8. Nature of the assay: TRPM8 assay of DIPA-1-10 at King's College, different assay conditions. It counts as cell-based. The source says:
[Table 2] […] The data for DIPA-1-10 is not included in the Table 2 or Figure because it was obtained under different assay conditions.
Target sequence in this assay (Q7Z2W7 whole entry, species assumed): as the sequence (Q7Z2W7 whole entry) above

The target of assay [6] is T1, TRPM8. Particulars: literature; cited from earlier work.
Target sequence in this assay (Q7Z2W7 whole entry, species assumed): as the sequence (Q7Z2W7 whole entry) above

Consider three compounds from patent US9956232B2, “Dialkyl-phosphinoyl-alkane (Dapa) compounds and compositions for treatment of lower gastrointestinal tract disorders” (priority 2016, dated 2018).

Chain of TRPV1 (Q8NER1 whole entry, species assumed): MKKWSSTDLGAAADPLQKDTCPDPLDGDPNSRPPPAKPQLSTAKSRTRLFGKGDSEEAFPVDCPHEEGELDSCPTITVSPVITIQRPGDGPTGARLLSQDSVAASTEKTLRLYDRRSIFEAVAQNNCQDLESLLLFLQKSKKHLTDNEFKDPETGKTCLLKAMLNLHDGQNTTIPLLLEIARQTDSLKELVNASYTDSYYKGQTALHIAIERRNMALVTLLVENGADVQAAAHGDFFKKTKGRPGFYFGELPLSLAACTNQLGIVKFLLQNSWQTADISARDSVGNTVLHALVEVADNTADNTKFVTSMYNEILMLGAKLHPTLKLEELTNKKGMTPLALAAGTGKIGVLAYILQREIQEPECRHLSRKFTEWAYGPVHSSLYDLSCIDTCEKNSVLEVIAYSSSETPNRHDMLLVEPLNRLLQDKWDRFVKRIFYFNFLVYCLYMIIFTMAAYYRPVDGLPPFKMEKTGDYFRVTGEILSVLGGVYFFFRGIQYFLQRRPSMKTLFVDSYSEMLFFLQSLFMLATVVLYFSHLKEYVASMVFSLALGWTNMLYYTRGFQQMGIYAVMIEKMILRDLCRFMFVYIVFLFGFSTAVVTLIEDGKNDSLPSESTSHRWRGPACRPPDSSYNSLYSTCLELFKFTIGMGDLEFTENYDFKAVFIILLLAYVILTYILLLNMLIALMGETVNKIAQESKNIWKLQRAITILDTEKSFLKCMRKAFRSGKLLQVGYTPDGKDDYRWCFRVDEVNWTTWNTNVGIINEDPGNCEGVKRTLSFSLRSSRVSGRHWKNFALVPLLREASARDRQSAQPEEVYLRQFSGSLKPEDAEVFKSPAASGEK
Chain of TRPA1 (O75762 whole entry, species assumed): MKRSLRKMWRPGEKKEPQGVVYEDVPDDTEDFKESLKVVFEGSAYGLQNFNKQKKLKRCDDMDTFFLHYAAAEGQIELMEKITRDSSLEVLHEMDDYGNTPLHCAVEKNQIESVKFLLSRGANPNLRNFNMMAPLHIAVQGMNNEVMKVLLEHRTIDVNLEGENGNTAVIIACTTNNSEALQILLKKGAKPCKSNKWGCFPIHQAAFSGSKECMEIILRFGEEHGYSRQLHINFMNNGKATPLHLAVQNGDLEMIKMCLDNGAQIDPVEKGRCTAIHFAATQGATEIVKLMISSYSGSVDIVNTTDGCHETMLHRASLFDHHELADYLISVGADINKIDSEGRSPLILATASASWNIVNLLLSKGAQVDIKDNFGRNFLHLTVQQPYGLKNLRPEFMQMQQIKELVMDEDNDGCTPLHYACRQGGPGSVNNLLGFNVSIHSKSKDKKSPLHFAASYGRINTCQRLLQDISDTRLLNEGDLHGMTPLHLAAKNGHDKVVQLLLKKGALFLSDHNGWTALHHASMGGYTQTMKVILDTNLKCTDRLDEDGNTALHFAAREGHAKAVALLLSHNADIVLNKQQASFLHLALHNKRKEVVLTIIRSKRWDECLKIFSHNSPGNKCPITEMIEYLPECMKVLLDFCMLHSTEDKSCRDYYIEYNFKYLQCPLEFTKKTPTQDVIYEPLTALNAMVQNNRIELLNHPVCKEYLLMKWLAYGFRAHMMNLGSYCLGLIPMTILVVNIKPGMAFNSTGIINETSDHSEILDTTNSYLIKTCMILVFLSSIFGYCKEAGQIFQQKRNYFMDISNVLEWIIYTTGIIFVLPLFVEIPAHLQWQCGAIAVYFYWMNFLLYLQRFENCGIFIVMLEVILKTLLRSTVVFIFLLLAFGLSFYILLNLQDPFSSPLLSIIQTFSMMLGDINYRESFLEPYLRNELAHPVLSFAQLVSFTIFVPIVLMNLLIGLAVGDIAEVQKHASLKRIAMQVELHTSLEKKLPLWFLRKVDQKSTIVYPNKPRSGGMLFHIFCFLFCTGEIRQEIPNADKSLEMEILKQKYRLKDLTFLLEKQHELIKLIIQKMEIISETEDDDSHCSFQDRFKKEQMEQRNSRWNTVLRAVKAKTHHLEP

Regarding `CCCCCCCCCP(=O)(C(C)C)C(C)C` [DIPA-1-9, 1-[Diisopropyl-phosphinoyl]-nonane], in assay [1], the “agonist or antagonist activities against TRPA1” value is given as “devoid of agonist or antagonist activities”. The “×Menthol” value in assay [2] (TRPM8 relative potency as repeated in Table 4) was found to be 4.0. The “Relative Potency” value in assay [2] (relative to menthol = 1.0 (Table 2)) was 4.0. For the same compound, the “Shaking frequency, Intravenous” value in assay [3] (2 mg/kg i.v., 2nd trial, counted for 15 min) came to 3 ± 1 shakes. Besides, in assay [3] (20 mg/kg by oral gavage, counted for 40 min), the “Shaking frequency, Perioral” value amounted to 0 shakes. The “Shaking frequency, Topical” value in assay [3] (20 μL pure compound on shaved abdominal skin, counted for 1 hr) turned out to be 0 shakes. Also, the “agonist or antagonist activities against TRPV1” value in assay [4] is listed as “devoid of agonist or antagonist activities”.

Regarding `CCCCCCCCCCP(=O)(C(C)C)C(C)C` [DIPA-1-10], in assay [5], the “potency × menthol” value came out at 1.7 × and the “times less active than DIPA-1-9” value turned out to be 2.4 ×.

Turning to `O=C1NC(c2cccc([N+](=O)[O-])c2)=CCN1c1ccccc1O` [Icilin], the “TRPM8 agonist potency × menthol” value in assay [6] is given as 200 ×.
